We go through nine compounds from PubChem BioAssay AID180 (DTP/NCI, 2004).

The subject of the assay is BDF1 mice, Adenocarcinoma 755 s.c., tumor weight T/C. Description: NCI In Vivo Anticancer Drug Screen. Data for tumor model Adenocarcinoma 755 (subcutaneous) in B6D2F1 (BDF1) mice. Particulars: endpoint: mean tumor weight, higher = larger tumour. A digest of the protocol: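 Transplantable tumor implanted; mice dosed with compound or vehicle; survival or tumor size recorded; ratio of treated to vehicle control reported.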

[1] abbreviates: dose: 300.0 mg/kg/injection, schedule: Q01DX011 (ip), vehicle: methylcellulose (MC).

Where “and” joins values, the source holds several entries; their conditions need not be identical. Equal entries are not always repeated.

As to `[I][Hg][CH2]C1COC([CH2][Hg][I])CO1` (stereo not given), the T/C was 96 % of control (dose: 0.8 mg/kg/injection, schedule: Q#A X022 (ip), vehicle: carboxymethylcellulose (CMC)); 43 % of control (dose: 1.25 mg/kg/injection, schedule: Q#A X022 (ip), vehicle: carboxymethylcellulose (CMC)); 84 % of control (dose: 1.9 mg/kg/injection, schedule: Q#A X022 (ip), vehicle: carboxymethylcellulose (CMC)); 35 % of control and 50 % of control (dose: 2.85 mg/kg/injection, schedule: Q#A X022 (ip), vehicle: carboxymethylcellulose (CMC)); 154 % of control (dose: 2.9 mg/kg/injection, schedule: Q01DX006 (iv), vehicle: carboxymethylcellulose (CMC)); 36 % of control (dose: 4.3 mg/kg/injection, schedule: Q#A X022 (ip), vehicle: carboxymethylcellulose (CMC)). Moreover, the T/C is 90 % of control (dose: 4.4 mg/kg/injection, schedule: Q01DX006 (iv), vehicle: carboxymethylcellulose (CMC)); 23 % of control (dose: 6.5 mg/kg/injection, schedule: Q#A X022 (ip), vehicle: carboxymethylcellulose (CMC)); 95 % of control (dose: 6.6 mg/kg/injection, schedule: Q01DX006 (iv), vehicle: carboxymethylcellulose (CMC)); 78 % of control (dose: 10.0 mg/kg/injection, schedule: Q01DX006 (iv), vehicle: carboxymethylcellulose (CMC)); 62 % of control (dose: 22.0 mg/kg/injection, schedule: Q03DX004 (ip), vehicle: carboxymethylcellulose (CMC)); 71 % of control (dose: 24.0 mg/kg/injection, schedule: Q01DX011 (oral), vehicle: carboxymethylcellulose (CMC)). For the same compound, the T/C was 75 % of control (dose: 25.0 mg/kg/injection, schedule: Q01DX011 (oral), vehicle: methylcellulose (MC)); 96 % of control (dose: 35.0 mg/kg/injection, schedule: Q01DX001 (ip), vehicle: carboxymethylcellulose (CMC)); 92 % of control (dose: 35.0 mg/kg/injection, schedule: Q01DX011 (oral), vehicle: carboxymethylcellulose (CMC)); 69 % of control (dose: 35.0 mg/kg/injection, schedule: Q03DX004 (ip), vehicle: carboxymethylcellulose (CMC)); 77 % of control (dose: 35.0 mg/kg/injection, schedule: Q07DX002 (ip), vehicle: carboxymethylcellulose (CMC)); 86 % of control (dose: 50.0 mg/kg/injection, schedule: Q01DX011 (oral), vehicle: methylcellulose (MC)). The T/C runs as follows: (dose: 50.0 mg/kg/injection, schedule: Q03DX004 (ip), vehicle: carboxymethylcellulose (CMC)) 51 % of control; (dose: 55.0 mg/kg/injection, schedule: Q01DX011 (oral), vehicle: carboxymethylcellulose (CMC)) 81 % of control; (dose: 60.0 mg/kg/injection, schedule: Q01DX011 (ip), vehicle: methylcellulose (MC)) 15 % of control; (dose: 80.0 mg/kg/injection, schedule: Q01DX011 (oral), vehicle: carboxymethylcellulose (CMC)) 78 % of control; (dose: 85.0 mg/kg/injection, schedule: Q01DX001 (ip), vehicle: carboxymethylcellulose (CMC)) 89 % of control; (dose: 100.0 mg/kg/injection, schedule: Q01DX011 (oral), vehicle: methylcellulose (MC)) 74 % of control. The T/C (dose: 120.0 mg/kg/injection, schedule: Q01DX011 (ip), vehicle: methylcellulose (MC)) is 60 % of control; the T/C (dose: 160.0 mg/kg/injection, schedule: Q01DX011 (im), vehicle: carboxymethylcellulose (CMC)) is 36 % of control; the T/C (dose: 160.0 mg/kg/injection, schedule: Q01DX011 (sc), vehicle: carboxymethylcellulose (CMC)) was 42 % of control; the T/C (dose: 240.0 mg/kg/injection, schedule: Q01DX011 (sc), vehicle: carboxymethylcellulose (CMC)) is 8 % of control; the T/C (dose: 360.0 mg/kg/injection, schedule: Q01DX011 (im), vehicle: carboxymethylcellulose (CMC)) was 10 % of control.
As for `CC(C)CCn1cnc2c(SCc3ccccc3F)nc(N)nc21`, the T/C reads like this: (dose: 30.0 mg/kg/injection, schedule: Q01DX011 (ip), vehicle: methylcellulose (MC)) 62 % of control; (dose: 100.0 mg/kg/injection, schedule: Q01DX011 (ip), vehicle: methylcellulose (MC)) 65 % of control; under setting [1], 10 % of control.
In the case of `Cn1c(=O)c2c(ncn2CCCO)n(C)c1=O`, the T/C (dose: 75.0 mg/kg/injection, schedule: Q01DX011 (ip), vehicle: carboxymethylcellulose (CMC)) was 61 % of control and the T/C (dose: 225.0 mg/kg/injection, schedule: Q01DX011 (ip), vehicle: carboxymethylcellulose (CMC)) was 65 % of control.
With `c1ccc2c3c(ccc2c1)Sc1ccc2ccccc2c1N3`, the T/C is, setting by setting: (dose: 27.5 mg/kg/injection, schedule: Q01DX011 (ip), vehicle: methylcellulose (MC)) 73 % of control; (dose: 27.5 mg/kg/injection, schedule: Q01DX011 (ip), vehicle: other) 108 % of control; (dose: 55.0 mg/kg/injection, schedule: Q01DX011 (ip), vehicle: methylcellulose (MC)) 76 % of control; (dose: 55.0 mg/kg/injection, schedule: Q01DX011 (ip), vehicle: other) 115 % of control; (dose: 110.0 mg/kg/injection, schedule: Q01DX011 (ip), vehicle: methylcellulose (MC)) 58 % of control; (dose: 440.0 mg/kg/injection, schedule: Q01DX011 (ip), vehicle: other) 64 % of control.
Consider `NC(N)=N/N=C/c1c(O)ccc2ccccc12`, for which the T/C reads like this: (dose: 12.5 mg/kg/injection, schedule: Q01DX011 (ip), vehicle: saline) 77 % of control; (dose: 25.0 mg/kg/injection, schedule: Q01DX011 (ip), vehicle: saline) 67 % of control; (dose: 50.0 mg/kg/injection, schedule: Q01DX011 (ip), vehicle: saline) 54 % of control.
With `Nc1nc(SCc2ccccc2F)c2ncn(C3OC(CO)C(O)C3O)c2n1` (stereo not given), the T/C by setting is: (dose: 1.5 mg/kg/injection, schedule: Q01DX011 (ip), vehicle: methylcellulose (MC)) 106 % of control; (dose: 3.1 mg/kg/injection, schedule: Q01DX011 (ip), vehicle: methylcellulose (MC)) 41 % of control; (dose: 6.2 mg/kg/injection, schedule: Q01DX011 (ip), vehicle: methylcellulose (MC)) 7 % of control and 14 % of control; (dose: 12.5 mg/kg/injection, schedule: Q01DX011 (ip), vehicle: methylcellulose (MC)) 1 % of control; (dose: 25.0 mg/kg/injection, schedule: Q01DX011 (ip), vehicle: methylcellulose (MC)) 5 % of control.
Turning to `Nc1nc(SCc2cccc([N+](=O)[O-])c2)c2[nH]cnc2n1`, the T/C was 41 % of control (dose: 37.5 mg/kg/injection, schedule: Q01DX011 (ip), vehicle: methylcellulose (MC)); 8 % of control (dose: 75.0 mg/kg/injection, schedule: Q01DX011 (ip), vehicle: methylcellulose (MC)); 3 % of control (dose: 150.0 mg/kg/injection, schedule: Q01DX011 (ip), vehicle: methylcellulose (MC)); 1 % of control under setting [1].
For the compound `O=C(O)Cn1cccc1`, the T/C reads like this: (dose: 250.0 mg/kg/injection, schedule: Q01DX011 (ip), vehicle: other) 80 % of control; (dose: 500.0 mg/kg/injection, schedule: Q01DX011 (ip), vehicle: other) 98 % of control; (dose: 4000.0 mg/kg/injection, schedule: Q01DX011 (ip), vehicle: other) 70 % of control.
Consider `Nc1nc(Cl)cc(Nc2cccc(Cl)c2)n1`, for which the T/C is, setting by setting: (dose: 15.0 mg/kg/injection, schedule: Q01DX011 (ip), vehicle: methylcellulose (MC)) 99 % of control; (dose: 31.0 mg/kg/injection, schedule: Q01DX011 (ip), vehicle: methylcellulose (MC)) 104 % of control; (dose: 62.0 mg/kg/injection, schedule: Q01DX011 (ip), vehicle: methylcellulose (MC)) 103 % of control; (dose: 125.0 mg/kg/injection, schedule: Q01DX011 (ip), vehicle: methylcellulose (MC)) 94 % of control; (dose: 250.0 mg/kg/injection, schedule: Q01DX011 (ip), vehicle: methylcellulose (MC)) 68 % of control.

By T/C is commonly meant the result in the treated group divided by that in the control group, in per cent.
